# Assay results from ChEMBL document CHEMBL3885861, “Open TG-GATES”.
# Species: Rattus norvegicus
# Test: Open TG-GATES - Regimen: Daily Repeat
# Type: toxicity, organism-based, Sprague-Dawley
# Set-up: regimen Daily Repeat, gender Male, age 6 weeks
# Details: in vivo, po, route gavage; for KIDNEY_L / KIDNEY_R / KIDNEY_TOTAL: tissue Kidney; for ALP / ALT / AST / BUN / CRE / Ca / Cl / DBIL / GLC / IP / K / LDH / Na / PL / RALB / TBIL / TC / TP / gamma-GTP / TG: tissue Plasma
# [1] = 45 mg/kg, 72 h, dose level Low, time 3 day
# [2] = 45 mg/kg, 72 h, tissue Blood, dose level Low, time 3 day
# [3] = 45 mg/kg, […], dose level Low, time 7 day
# [4] = 45 mg/kg, […], dose level Low, time 14 day
# [5] = 45 mg/kg, […], dose level Low, time 28 day
# [6] = 45 mg/kg, […], tissue Blood, dose level Low, time 7 day
# [7] = 45 mg/kg, […], tissue Blood, dose level Low, time 14 day
# [8] = 45 mg/kg, […], tissue Blood, dose level Low, time 28 day
smiles,measurement,setting,value
CC(=O)Oc1ccccc1C(=O)O [ASPIRIN],TERMINAL_BW,[1],237.2 g
same,APTT,[2],19.4 s
same,Bas,[2],0%
same,Eos,[2],0.8%
same,Fbg,[2],214 mg/dL
same,Hb,[2],13.7 g/dL
same,Ht,[2],40.3%
same,Lym,[2],81%
same,MCH,[2],21.4 pg
same,MCHC,[2],33.9%
same,MCV,[2],62.9 fL
same,Mono,[2],2.8%
same,Neu,[2],13.6%
same,Plat,[2],113.2 x10_4/uL
same,RBC,[2],641.2 x10_4/ul
same,Ret,[2],5.8%
same,WBC,[2],103.1 x10_2/uL
same,KIDNEY_L,[1],1.1 g
same,KIDNEY_R,[1],1.1 g
same,KIDNEY_TOTAL,[1],2.2 g
same,ALP,[1],890.4 IU/L
same,ALT,[1],45 IU/L
same,AST,[1],86.4 IU/L
same,BUN,[1],13.8 mg/dL
same,CRE,[1],0.4 mg/dL
same,Ca,[1],10.7 mg/dL
same,Cl,[1],102.2 meq/L
same,DBIL,[1],0.09 mg/dL
same,GLC,[1],205.2 mg/dL
same,IP,[1],6.8 mg/dL
same,K,[1],3.8 meq/L
same,LDH,[1],315.2 IU/L
same,Na,[1],140.4 meq/L
same,PL,[1],146.2 mg/dL
same,RALB,[1],3.5 g/dL
same,TBIL,[1],0.1 mg/dL
same,TC,[1],71 mg/dL
same,TP,[1],5.7 g/dL
same,gamma-GTP,[1],0.6 IU/L
same,TERMINAL_BW,[3],270.5 g
same,TERMINAL_BW,[4],315.9 g
same,TERMINAL_BW,[5],394.7 g
same,APTT,[6],22.5 s
same,Bas,[6],0%
same,Eos,[6],1%
same,Fbg,[6],205.8 mg/dL
same,Hb,[6],13.5 g/dL
same,Ht,[6],39.9%
same,Lym,[6],84.2%
same,MCH,[6],20.8 pg
same,MCHC,[6],33.9%
same,MCV,[6],61.4 fL
same,Mono,[6],2.2%
same,Neu,[6],12.2%
same,PT,[6],12.6 s
same,Plat,[6],120.9 x10_4/uL
same,RBC,[6],650.4 x10_4/ul
same,Ret,[6],5.3%
same,WBC,[6],120.2 x10_2/uL
same,APTT,[7],19.9 s
same,Bas,[7],0%
same,Eos,[7],1.2%
same,Fbg,[7],220.6 mg/dL
same,Hb,[7],14.7 g/dL
same,Ht,[7],42.3%
same,Lym,[7],77.2%
same,MCH,[7],20.9 pg
same,MCHC,[7],34.9%
same,MCV,[7],59.8 fL
same,Mono,[7],2%
same,Neu,[7],18.2%
same,Plat,[7],128.5 x10_4/uL
same,RBC,[7],707.4 x10_4/ul
same,Ret,[7],3.6%
same,WBC,[7],138.1 x10_2/uL
same,APTT,[8],20.3 s
same,Bas,[8],0%
same,Eos,[8],1.4%
same,Fbg,[8],207.2 mg/dL
same,Hb,[8],15.4 g/dL
same,Ht,[8],44.6%
same,Lym,[8],80.4%
same,MCH,[8],19.2 pg
same,MCHC,[8],34.4%
same,MCV,[8],55.7 fL
same,Mono,[8],2.4%
same,Neu,[8],14.2%
same,Plat,[8],101 x10_4/uL
same,RBC,[8],801 x10_4/ul
same,Ret,[8],2%
same,WBC,[8],104.5 x10_2/uL
same,KIDNEY_L,[3],1.2 g
same,KIDNEY_R,[3],1.2 g
same,KIDNEY_TOTAL,[3],2.3 g
same,KIDNEY_L,[4],1.3 g
same,KIDNEY_R,[4],1.3 g
same,KIDNEY_TOTAL,[4],2.5 g
same,KIDNEY_L,[5],1.5 g
same,KIDNEY_R,[5],1.5 g
same,KIDNEY_TOTAL,[5],3 g
same,ALP,[3],901.6 IU/L
same,ALT,[3],27.8 IU/L
same,AST,[3],62.2 IU/L
same,BUN,[3],16 mg/dL
same,CRE,[3],0.4 mg/dL
same,Ca,[3],10.6 mg/dL
same,Cl,[3],102.6 meq/L
same,DBIL,[3],0.096 mg/dL
same,GLC,[3],219 mg/dL
same,IP,[3],7.3 mg/dL
same,K,[3],4.1 meq/L
same,LDH,[3],213.4 IU/L
same,Na,[3],140.4 meq/L
same,PL,[3],140.6 mg/dL
same,RALB,[3],3.2 g/dL
same,TBIL,[3],0.1 mg/dL
same,TC,[3],73.4 mg/dL
same,TG,[3],107.4 mg/dL
same,TP,[3],5.5 g/dL
same,gamma-GTP,[3],0.6 IU/L
same,ALP,[4],902.4 IU/L
same,ALT,[4],40.6 IU/L
same,AST,[4],76 IU/L
same,BUN,[4],16 mg/dL
same,CRE,[4],0.4 mg/dL
same,Ca,[4],10.6 mg/dL
same,Cl,[4],102.8 meq/L
same,DBIL,[4],0.1 mg/dL
same,GLC,[4],189.8 mg/dL
same,IP,[4],7.1 mg/dL
same,K,[4],4.2 meq/L
same,LDH,[4],244 IU/L
same,Na,[4],140.8 meq/L
same,PL,[4],153 mg/dL
same,RALB,[4],3.5 g/dL
same,TBIL,[4],0.1 mg/dL
same,TC,[4],71.8 mg/dL
same,TG,[4],133.6 mg/dL
same,TP,[4],5.8 g/dL
same,gamma-GTP,[4],0.6 IU/L
same,ALP,[5],733.8 IU/L
same,ALT,[5],33 IU/L
same,AST,[5],67.2 IU/L
same,BUN,[5],17 mg/dL
same,CRE,[5],0.5 mg/dL
same,Ca,[5],10.3 mg/dL
same,Cl,[5],102.6 meq/L
same,DBIL,[5],0.094 mg/dL
same,GLC,[5],232.8 mg/dL
same,IP,[5],6.7 mg/dL
same,K,[5],3.9 meq/L
same,LDH,[5],186.2 IU/L
same,Na,[5],141.2 meq/L
same,PL,[5],143.2 mg/dL
same,RALB,[5],3.4 g/dL
same,TBIL,[5],0.2 mg/dL
same,TC,[5],68.6 mg/dL
same,TG,[5],125 mg/dL
same,TP,[5],6.1 g/dL
same,gamma-GTP,[5],0.6 IU/L
same,TERMINAL_BW,"150 mg/kg, 72 h, dose level Middle, time 3 day",239.9 g
